The source of these data is patent publication US9534221B2, “Targeting the steroidogenic pathway for treating and/or preventing allergic diseases” (National Jewish Health, priority 2013, dated 2017).

The test system of one experiment is CD4 T cells. The experiment in a line: Th1, Th2, Th17 differentiation of naive CD4 T cells in vitro. The format is cell-based, mouse. The procedure: Levels of IL-4, IL-13, IL-17A, and IFN-γ in cell culture supernatants were measured by ELISA (eBioscience, San Diego, Calif.) as described by the manufacturer. Pregnenolone levels in serum and cell culture supernatants were measured by ELISA (ALPCO Diagnostics, Salem, N.H.), as described by the manufacturer. Differentiation of Th1, Th2, or Th17 cells was performed as previously described with minor changes (Ashino, S., et al. Intl. Immunol. 22:503-513 (2010)). CD4^+CD45RB^+ T cells were isolated from naive TCR-transgenic mice (OT II mice) spleen using a cell sorter (MoFlo XDP, Beckman Coulter). In the presence of mitomycin-C-treated spleen cells, 5 μg/ml OVA323-339 peptide, and the inhibitor AMG ([…]), isolated naive CD4 T cells were cultured with rmIL-2 (10 ng/ml, R/D Systems), rmIL-12 (10 ng/ml, Peprotech), rmIFN-γ (5 ng/ml, Peprotech), and anti-IL-4 mAbs (10 μg/ml, eBioscience) to induce Th1 cell differentiation; with rmIL-2 (10 ng/ml, R/D Systems), rmIL-4 (5 ng/ml, Peprotech), and anti-IFN-γ mAb (10 μg/ml, eBioscience) for differentiation of Th2 cells; and […], Peprotech), anti-IL-4 mAb (10 μg/ml, eBioscience), and anti-IFN-γ mAb (10 μg/ml, eBioscience) for differentiation of Th17 cells. After 6 days of culture, the cells were washed with fresh medium and restimulated with anti-CD3/anti-CD28 for 24 hrs for assay of cytokine production. The cells were collected for quantitative RT-PCR and Western blot. In some experiments (for transduction experiment), the cells were cultured under Th1, Th2, and Th17 polarizing conditions for 5 days as described in Methods. Cultured cells were lysed as previously described (Ohnishi, H., et al. J. Allergy Clin. Immunol. 121:864-871 (2008)). Lysates were resolved by means of SDS-PAGE and transferred to nitrocellulose membranes. Proteins were detected using antibodies specific for Cyp11a1 (LifeSpan Biosciences. Seattle, Wash.) followed by chemiluminescence detection (GE Healthcare, Little Chalfont, UK). RNA was extracted from jejunal tissue homogenates or from CD4 T cells cultured in vitro using Trizol (Invitrogen). cDNA was generated using the iScript cDNA synthesis kit (Bio-Rad Laboratories, Hercules, Calif.). Quantitative real-time PCR was performed on the ABI Prism 7300 sequence detection system (Applied Biosystems, Foster City, Calif.). All primers and probes used were purchased as Tagman Gene Expression Assays from Applied Biosystems. Fold change was calculated using the Delta Delta cycle threshold (ΔΔCT) method.

Experiment [1] relates to T-bet and GATA3 expression. The experiment can be described thus: Quantitative RT-PCR of T-bet and GATA3 in CD8+ T cells. The conditions noted are these: CD8+ T cells in IL-2 or IL-2+IL-4, untreated vs 500 μM AMG. Format: cell-based, mouse. As for the experimental part: CD8^+ effector memory T cells were generated in vitro as previously described (Miyahara, N. et al. J. Immunol. 172, 2549-2558 (2004); Miyahara, N. et al. J. Immunol. 174, 4979-4984 (2005)). In brief, mononuclear cells (MNCs) were processed from the spleens of OT-1 mice followed by stimulation of 1 μg/ml SIINFEKL peptide (SEQ ID NO:1) was used to stimulate cells for 1.5 hours. Two days after culture, living cells were re-isolated using histopaque and cultured in complete RPMI 1640 medium that contained recombinant mouse IL-2 (20 ng/ml) (R&D, Minneapolis, Minn.) or IL-2+IL-4 (20 ng/ml) (Peprotech, Rocky Hill, N.J.). For some experiments, AMG was added into the medium together with IL-2 or IL-2+IL-4. Medium with cytokines was changed every day for a further 4 days. The cells were then re-stimulated with 1 μg/ml SIINFEKL (SEQ ID NO:1) in medium containing 2 μM monensin (Calbiochem, La Jolla, Calif.) for 4 hours. Total RNA was extracted from 5×10^6 differentiated CD8^+ T cells using the RNeasy Mini kit (Qiagen, Valencia, Calif.). 1 μg of total RNA was converted into cDNA using iScript cDNA Synthesis kit (Bio-Rad, Hercules, Calif.). […] Fold-changes were determined using the 2^−ΔΔCt method, with normalization to expression of mouse GAPDH.

For a further experiment, the system named is CD8+ T cells. The experiment in a line: Flow cytometric intracellular staining of IFN-γ and IL-13 in CD8+ T cells. Format: cell-based, mouse. The note with it: no SIINFEKL
Experiment [2] has as its target T1, Cyp11a1 (Mus musculus, UniProt Q9QZ82).
T1 construct: mononuclear cells (MNCs) were processed from the spleens of OT-1 mice; endogenous in cells
T1 sequence (Q9QZ82 37-526): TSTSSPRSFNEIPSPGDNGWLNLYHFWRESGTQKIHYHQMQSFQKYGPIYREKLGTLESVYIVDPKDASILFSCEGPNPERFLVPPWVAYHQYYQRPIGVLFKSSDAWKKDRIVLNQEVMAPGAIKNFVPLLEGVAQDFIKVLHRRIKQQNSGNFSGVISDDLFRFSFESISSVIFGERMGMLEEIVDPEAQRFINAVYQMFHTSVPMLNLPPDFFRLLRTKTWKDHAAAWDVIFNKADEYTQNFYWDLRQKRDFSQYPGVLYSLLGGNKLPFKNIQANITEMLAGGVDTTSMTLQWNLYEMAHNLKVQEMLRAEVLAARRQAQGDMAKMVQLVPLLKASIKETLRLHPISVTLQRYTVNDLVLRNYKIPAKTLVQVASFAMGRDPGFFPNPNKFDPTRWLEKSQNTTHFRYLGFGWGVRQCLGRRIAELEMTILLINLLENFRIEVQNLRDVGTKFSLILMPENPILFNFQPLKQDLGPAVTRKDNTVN
The experiment in a line: Pregnenolone levels in serum of peanut sensitized and challenged mice (Cyp11a1 enzymatic activity). The format is in vivo. The note with it: AMG 20 mg/kg, PE/PE mice; PE/PE without AMG 4.69±0.92, PBS/PE 1.99±0.11.
Protocol: AMG was dissolved in 1 M hydrogen chloride and diluted with saline for in vivo studies or diluted with RPMI medium for in vitro study. The final concentration of 1 M hydrogen chloride was less than 1% and 0.05% for in vivo and in vitro, respectively. PE sensitized and challenged mice received different doses (5, 10, 20 mg/kg) of the Cyp11a1 enzyme inhibitor (PE/PE/AMG) by means of gavage using a 22-gauge feeding needle (Fisher Scientific) twice a day during the peanut challenge phase. Controls included PE sensitized and challenged but vehicle (saline) treated (PE/PE/vehicle), or sham sensitized but PE challenged and vehicle-treated (PBS/PE/vehicle) mice.

Experiment [3] has as its system Cyp11a1. The experiment can be described thus: Immunoblot analysis of Cyp11a1 protein in CD8+ T cells. Format: cell-based, mouse. The conditions noted are these: IL-2+IL-4, 500 μM AMG, with or without SIINFEKL re-stimulation.
Protocol: In brief, mononuclear cells (MNCs) were processed from the spleens of OT-1 mice followed by stimulation of 1 μg/ml [sequence] peptide (SEQ ID NO:1) was used to stimulate cells for 1.5 hours. Two days after culture, living cells were re-isolated using histopaque and cultured in complete RPMI 1640 medium that contained recombinant mouse IL-2 (20 ng/ml) (R&D, Minneapolis, Minn.) or IL-2+IL-4 (20 ng/ml) (Peprotech, Rocky Hill, N.J.). For some experiments, AMG was added into the medium together with IL-2 or IL-2+IL-4. Medium with cytokines was changed every day for a further 4 days. The cells were then re-stimulated with 1 μg/ml [sequence] (SEQ ID NO:1) in medium containing 2 μM monensin (Calbiochem, La Jolla, Calif.) for 4 hours.
CD8^+ T cells (5×10^6) were lysed with RIPA buffer containing Hale™ protease and phosphatase inhibitor cocktail (Thermo Scientific, Rockford, Ill.) on ice for 30 minutes. Samples were run by sodium dodecyl sulfate polyacrylamide gel electrophoresis (SDS-PAGE) and transferred to nitrocellulose membranes. […] Immunoreactive bands of Western blottings were quantified by densitometric quantification of autoradiographs using Image J (NIMH, Bethesda, Md.), and expressed as relative Cyp11a1 normalized by β-actin.
Where [4] appears, read: polarized Th1, Th2 or Th17 cells, AMG 400 μM.

Turning to `CCC1(c2ccc(N)cc2)CCC(=O)NC1=O` (stereo not drawn) [AMG, aminoglutethimide], the “IFNG mRNA expression” value in the experiment with CD4 T cells (Th1 cells) was “no significant effects”. The “Pregnenolone levels in culture supernates” value with CD4 T cells (Th2 cells, AMG 400 μM) is listed as “significantly decreased”. Further, the “Pregnenolone levels in culture supernates” value with CD4 T cells (Th17 cells, AMG 400 μM) is “the decreases did not reach statistical significance”. Moreover, in the experiment on CD4 T cells (setting [4]), the “Cyp11a1 mRNA expression levels” value is “did not suppress” and the “Cyp11a1 protein expression levels” value was “did not suppress”. Also, the “IFN-γ levels in culture supernatants” value with CD4 T cells (polarized Th1 cell cultures) is on record as “not affected”. Moreover, the “T-bet mRNA expression” value with CD4 T cells (polarized Th1 cells, 400 μM) is “did not have any effect”. Further, in the experiment with CD4 T cells (polarized Th2 cell cultures), the “IL-13 levels in culture supernatants” value was “decreased”. In the experiment with CD4 T cells (polarized Th2 cells), the “IL13 mRNA” value is “decreased”. The “GATA3 mRNA expression” value in the experiment on CD4 T cells (polarized Th2 cells, 400 μM) is given as “did not have any effect”. Also, in the experiment on CD4 T cells (polarized Th17 cell cultures), the “IL-17A levels in culture supernatants” value is “decreased”. Besides, the “IL17A mRNA” value in the experiment on CD4 T cells (polarized Th17 cells) is reported as “decreased”. Also, the “RORγt mRNA expression” value in the experiment on CD4 T cells (polarized Th17 cells, 400 μM) is reported as “did not have any effect”. In experiment [1], the GATA3 expression result is listed as “no significant differences” and the T-bet expression entry is on record as “no significant differences”. In addition, in the experiment on CD8+ T cells (IL-2+AMG (500 μM)), the “IFN-γ single positive cells” value is listed as 0.2 +/− 0.1%, the “IFN-γ+IL13+ double positive cells” value came to 0% and the “IL-13 single positive cells” value was 0.4 +/− 0.2%. In addition, the “IFN-γ+IL13+ double positive cells” value with CD8+ T cells (IL-2+IL-4+AMG (500 μM)) was 0.1%. For the same molecule, the “Pregnenolone levels in serum” value at Cyp11a1 [2] turned out to be 2.98 ± 0.60 ng/mL. Further, the “Cyp11a1 protein levels (immunoblot)” value with Cyp11a1 [3] is “did not prevent IL-4-induced increases in Cyp11a1 protein levels”.
